Consider one compound from patent US10961202B2, “Bis-benzimidazole compounds and methods of using the same” (THE SCRIPPS RESEARCH INSTITUTE, priority 2017, dated 2021).

pIC50: −log10 of the molar value. Like-named read-outs stand apart in the source and are kept apart here.

The test system of one experiment is r(CUG)12-MBNL1 complex. The experiment can be described thus: Inhibition of the r(CUG)12-MBNL1 complex measured by TR-FRET. The class given is biochemical. To be noted: Table M; 80 nM RNA, 60 nM MBNL1-His6.
Experiment [1] relates to HSALR strain 20b mice. Briefly: DM1 mouse efficacy study: RT-PCR of MBNL1-dependent splicing targets in gastrocnemius. Format: in vivo. Particulars: sc, 3 mg/kg qod 5 doses, subcutaneous. From the text:
HSALR strain 20b mice were used as a model for myotonic dystrophy type I (DM1) experimental studies when testing the efficacy of candidate compounds. To determine the genotype of the mice, the transgene of human skeletal actin (HSA) genomic level was compared to endogenous mouse skeletal actin (MSA) by PCR. Mice with an HSA:MSA ratio of 2:1, homozygous mice were used for the study. Disease phenotype was confirmed in homozygous HSALR by assessing myotonia by pinching the quadriceps of the mouse. […] Homozygous HSALR that have been confirmed by PCR genotyping HSA:MSA ratio and are positive for pinch myotonia were selected for candidate compound efficacy studies for DM1.
For each study, a control group of PBS injected mice was included along with mice test groups injected with the compound to be tested. For a statistical power >80%, five mice were used per group (three females and two males). As previously indicated, homozygous HSALR mice were selected aged 8-12 weeks at the beginning of the study. Littermate mice were evenly distributed across groups in the study. Each cage contained mice from a single group. Female mice from different litters were combined into one cage for a single test group. Male mice cannot be combined in cages with non-littermate mice. If any fighting occurred in cages with multiple mice, the mice with minor/superficial fight wounds were be separated and monitored. Mice with severe fight wounds were removed from the study. Mice were monitored throughout the study for weight changes over time, behavioral changes at time of injection, and any other potential health concerns that arose during the study.
Mice were injected with approximately ˜200 μL solution subcutaneously by 28-gauge syringe. The volume administered was determined by the weight of the mouse where 10 iaL solution is administered per 1 g of the weight of the mouse. The compound was solubilized in DPBS at a concentration of […], which equated to a dose of 0.1-3.0 mg compound per kg weight of the animal (mpk). Mice were weighed once a week, and the volume of administered compound solution (or DPBS) was adjusted accordingly for correct mpk dosing. Once a compound was tested for acute toxicity in FVB wildtype mice, the compound was typically first tested at 3 mpk, injected every other day (q.o.d.) for five doses, and the mice sacrificed 24 hr after the last injection. Candidate compounds were further tested at different dose regimes to further assess the compound's efficacy in DM1 mice.
For each mouse, blood, brain, heart, liver, kidney, tibialis anterior, gastrocnemius, and quadriceps were dissected and collected. After the mouse was euthanized, blood was collected by cardiac puncture and placed in lithium heparin tubes on ice. Plasma was separated by centrifugation and collected. Brain, heart, half of the liver, tibialis anterior, gastrocnemius, and quadriceps were flash frozen in liquid nitrogen. Half of the liver, kidneys, and subset of heart samples were fixed in 10% formalin. One of the two tibialis anterior muscles was frozen with OCT for cyro-sectioning.
Gastrocnemius muscle was used for downstream RNA extraction RT-PCR. […] Half of one gastrocnemius was used for an RNA extraction. The gastrocnemius was homogenized in Trizol reagent and extracted following the protocol of the Zymo Direct-zol RNA Mini Prep Plus kit.
For each RNA sample, 500 ng of RNA was used for a reverse transcription reaction to produce single-stranded cDNA. MBNL1-dependent splicing targets (Clcn1 exon 7a, Mbnl1 exon 5, Sercal exon 22, and Zasp exon 11) and MBNL1-independent splicing targets (Capzb exon 8, Itgb1 exon 17) were assessed by RT-PCR. For the alternative exons listed, forward and reverse primers were designed to amplify the alternative exon along with the flanking constitutive exons such that one primer may produce two PCR products: one PCR product including the alternative exon and one PCR product excluding the alternative exon. […]

Experiment [2] relates to MBNL1 exon 5 inclusion in DM1 myotubes. The experiment can be described thus: Myotube splicing rescue assay (MBNL1 exon 5 inclusion). The class given is cell-based, human. Particulars: 10 μM, 48-hour incubation.
Experiment [3] has as its system HSALR strain 20b mice. The experiment can be described thus: DM1 mouse efficacy study: RT-PCR of MBNL1-dependent splicing targets in gastrocnemius. The class given is in vivo. Particulars: sc, 7.5 mg/kg qod 5 doses, subcutaneous.
[4] abbreviates: read-out: Clcn1 exon 7a splicing rescue %.
The mark [5] stands for this setting: read-out: Mbnl1 exon 5 splicing rescue %.
[6] abbreviates: read-out: Serca1 exon 22 splicing rescue %.
Where [7] appears, read: read-out: Zasp exon 11 splicing rescue %.

The pIC50 is the IC50 on a negative log10 scale, so that one unit is a factor of ten. `CN1CCC(COc2ccc3nc(-c4ccc(-c5nc6ccc(OCC7CCN(C)CC7)cc6[nH]5)cc4)[nH]c3c2)CC1` [Compound 198, 1,4-bis(6-((1-methylpiperidin-4-yl)methoxy)-1H-benzo[d]imidazol-2-yl)benzene]: in the experiment with r(CUG)12-MBNL1 complex, the pIC50 was 5.01. The percent splicing rescue at 3 mg/kg in the experiment on HSALR strain 20b mice [1] (setting [4]) was 55.1%; in the experiment with HSALR strain 20b mice [1] (setting [5]) it was 49.7%; in the experiment on HSALR strain 20b mice [1] (setting [6]), 22.3%; in the experiment on HSALR strain 20b mice [1] (setting [7]), 35%. For the same compound, the “MBNL1 % splicing rescue at 10 μM” value in experiment [2] is recorded as 109.8%. Besides, the percent splicing rescue at 7.5 mg/kg with HSALR strain 20b mice [3] (setting [4]) came out at 90.4%; in the experiment with HSALR strain 20b mice [3] (setting [5]) it was 94.5%; with HSALR strain 20b mice [3] (setting [6]), 61.2%; in the experiment with HSALR strain 20b mice [3] (setting [7]), 91.5%.
